In paper PMC2649375 (Journal of molecular neuroscience : MN, 2006):
Positions count from the first letter of the chain named.

How the values were obtained:
[1] = target: T1, R344H mutant 5-HT3 receptor (Mus musculus, UniProt P23979, R349H); settings: maximum number of binding sites, n = 9
T1 sequence (P23979 24-483 isoform P23979-2 R349H limits assumed): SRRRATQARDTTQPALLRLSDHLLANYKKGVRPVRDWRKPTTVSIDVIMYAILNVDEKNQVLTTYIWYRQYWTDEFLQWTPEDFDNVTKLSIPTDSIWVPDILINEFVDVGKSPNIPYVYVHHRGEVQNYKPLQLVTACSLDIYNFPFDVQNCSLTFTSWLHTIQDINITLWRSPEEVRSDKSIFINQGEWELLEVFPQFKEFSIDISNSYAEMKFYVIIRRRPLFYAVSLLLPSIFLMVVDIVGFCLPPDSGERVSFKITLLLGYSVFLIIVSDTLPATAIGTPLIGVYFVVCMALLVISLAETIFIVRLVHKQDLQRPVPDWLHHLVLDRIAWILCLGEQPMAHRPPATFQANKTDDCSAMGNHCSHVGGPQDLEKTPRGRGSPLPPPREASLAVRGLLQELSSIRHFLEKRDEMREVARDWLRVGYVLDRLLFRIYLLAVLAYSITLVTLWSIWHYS

[2] = target: T2, P391R mutant 5-HT3 receptor (Mus musculus, UniProt P23979, P402R); settings: maximum number of binding sites, n = 5
T2 sequence (P23979 24-483 isoform P23979-2 P396R limits assumed): T1 sequence (P23979 24-483 isoform P23979-2 R349H limits assumed) with H326R, P373R

wild-type 5-HT3 receptor = target: T3, wild-type 5-HT3 receptor (Mus musculus, UniProt P23979); settings: maximum number of binding sites, n = 5
T3 sequence (P23979 24-483 isoform P23979-2 limits assumed): T1 sequence (P23979 24-483 isoform P23979-2 R349H limits assumed) with H326R

Bmax [1]: 853 ± 232 fmol/mg
Bmax [2]: 353 ± 113 fmol/mg
Bmax (wild-type 5-HT3 receptor): 567 ± 149 fmol/mg
Compound: CN1C2CCCC1CC(NC(=O)c1nn(C)c3ccccc13)C2 (stereo not drawn) [[^3H]Granisetron]
